One assay relates to PC-3. The assay is described as follows: Cytotoxicity against human PC3 cells assessed as reduction in cell viability incubated for 96 hrs by MTT assay. It counts as cell-based. To be noted: PC-3, 96 h.
In the next assay the test system is MDA-MB-231. Description: Cytotoxicity against human MDA-MB-231 cells assessed as reduction in cell viability incubated for 96 hrs by MTT assay. To be noted: MDA-MB-231, 96 h.
The test system of a further assay is [Candida] zeylanoides. Description: Antifungal activity against Candida zeylanoides CMGCC2.3739 measured after 24 hrs by broth microdilution assay. Format: functional. The settings on record: Dujonia zeylanoides.
A further assay concerns Candida parapsilosis. Description: Antifungal activity against Candida parapsilosis ATCC 22019 measured after 24 hrs by broth microdilution assay. It counts as functional. To be noted: Lodderomyces parapsilosis.
Assay [1] concerns Candida albicans. The assay is described as follows: Antifungal activity against fluconazole-resistant Candida albicans 17# assessed as inhibition of microbial growth after 24 hrs by broth microdilution method. It counts as functional.
A further assay concerns Pichia kudriavzevii. Description: Antifungal activity against Candida krusei AS2.1045 measured after 24 hrs by broth microdilution assay. Format: functional.
Assay [2] has as its system Candida albicans. Description: Antifungal activity against Candida albicans CPCC400616 measured after 24 hrs by broth microdilution assay. Format: functional.
Assay [3] relates to Candida albicans. The assay is described as follows: Potency index, ratio of fluconazole MIC to test compound MIC for Candida albicans CPCC400616 measured after 24 hrs by broth microdilution assay. Format: functional.
The test system of another assay is Aspergillus fumigatus. Description: Antifungal activity against Aspergillus fumigatus CMGCC3.7795 measured after 72 hrs by broth microdilution assay. Format: functional.
For assay [4], the system named is Candida albicans. Description: Antifungal activity against fluconazole-resistant Candida albicans 632 assessed as inhibition of microbial growth after 24 hrs by broth microdilution method. It counts as functional.
The next assay has as its system Cryptococcus neoformans. Description: Antifungal activity against Cryptococcus neoformans CMGCC2.3161 measured after 72 hrs by broth microdilution assay. Format: functional.
In assay [5] the test system is Candida albicans. The assay is described as follows: Antifungal activity against fluconazole-resistant Candida albicans 904 assessed as inhibition of microbial growth after 24 hrs by broth microdilution method. Format: functional.
The next assay concerns Nakaseomyces glabratus. The assay is described as follows: Antifungal activity against Candida glabrata measured after 24 hrs by broth microdilution assay. Format: functional.
Assay [6] deals with Candida albicans. The assay is described as follows: Antifungal activity against fluconazole-resistant Candida albicans 901 assessed as inhibition of microbial growth after 24 hrs by broth microdilution method. It counts as functional.
Assay [7] has as its system Candida albicans. Description: Antifungal activity against fluconazole-resistant Candida albicans CaR assessed as inhibition of microbial growth after 24 hrs by broth microdilution method. Format: functional.
Assay [8] has as its system Candida albicans. Description: Antifungal activity against Candida albicans ATCC SC5314 measured after 24 hrs by broth microdilution assay. It counts as functional.
The subject of a further assay is HL-60. Description: Cytotoxicity against human HL-60 cells assessed as reduction in cell viability incubated for 96 hrs by MTT assay. To be noted: HL-60, 96 h. It counts as cell-based.
The subject of a further assay is MCF-10A. The assay is described as follows: Cytotoxicity against human MCF-10A cells assessed as reduction in cell viability incubated for 96 hrs by MTT assay. It counts as cell-based.

Our source for the IC50, MIC and Ratio values is ChEMBL document CHEMBL4813985, “Lead optimization generates selenium-containing miconazole CYP51 inhibitors with improved pharmacological profile for the treatment of fungal infections” (Eur J Med Chem, 2021).

Molecules are shown by their SMILES. ≈ marks a conversion by molar mass, not a printed value. Bounds are passed on as bounds.

`CC(=O)O[C@H]1C(=O)[C@@]2(C)[C@H]([C@H](OC(=O)c3ccccc3)[C@]3(O)C[C@H](OC(=O)[C@H](O)[C@@H](NC(=O)c4ccccc4)c4ccccc4)C(C)=C1C3(C)C)[C@]1(OC(C)=O)CO[C@@H]1C[C@@H]2O` [PACLITAXEL]: the figures for the IC50 with PC-3 (read-out: IC50) and in the assay with MDA-MB-231 were under 25 nM and under 1 nM, respectively.
Take `Cc1cccc([Se]C(Cn2ccnc2)c2ccc(Cl)cc2Cl)c1` (stereo unspecified): the MIC was 0.25 µg/mL (≈ 0.609 µM) in assay [Candida] zeylanoides; 0.25 µg/mL (≈ 0.609 µM) in the assay on Candida parapsilosis; 1 µg/mL with Candida albicans [1]; 0.06 µg/mL (≈ 0.146 µM) against Pichia kudriavzevii; 0.25 µg/mL (≈ 0.609 µM) in the assay with Candida albicans [2]; 4 µg/mL (≈ 9.75 µM) with Aspergillus fumigatus. Also, the MIC turned out to be 1 µg/mL in the assay with Candida albicans [4]; 0.25 µg/mL (≈ 0.609 µM) against Cryptococcus neoformans; 1 µg/mL in the assay with Candida albicans [5]; 1 µg/mL (≈ 2.44 µM) against Nakaseomyces glabratus; 1 µg/mL with Candida albicans [6]; 1 µg/mL in the assay on Candida albicans [7]. For the same compound, in the assay with Candida albicans [8], the MIC turned out to be 0.03 µg/mL (≈ 0.0731 µM). For the same compound, the Ratio in the assay on Candida albicans [3] is 8.
Regarding `COc1cccc2c1C(=O)c1c(O)c3c(c(O)c1C2=O)C[C@@](O)(C(=O)CO)C[C@@H]3O[C@H]1C[C@H](N)[C@H](O)[C@H](C)O1` [DOXORUBICIN], the IC50 in the assay on HL-60 was under 125 nM; in the assay with MCF-10A, 2640 nM; in the assay on PC-3, 640 nM.
With `Cc1cccc(C)c1[Se]C(Cn1ccnc1)c1ccc(Cl)cc1Cl` (stereo unspecified), the MIC in assay [Candida] zeylanoides turned out to be 4 µg/mL (≈ 9.43 µM); against Candida parapsilosis, 0.5 µg/mL (≈ 1.18 µM); in the assay with Candida albicans [1] it was 4 µg/mL; in the assay with Pichia kudriavzevii it was 2 µg/mL (≈ 4.71 µM); in the assay with Candida albicans [2], 0.13 µg/mL (≈ 0.306 µM); with Aspergillus fumigatus, 8 µg/mL (≈ 18.9 µM). In addition, the MIC in the assay on Candida albicans [4] turned out to be 8 µg/mL; in the assay on Cryptococcus neoformans it was 0.5 µg/mL (≈ 1.18 µM); in the assay on Candida albicans [5], 8 µg/mL; in the assay with Nakaseomyces glabratus, 0.13 µg/mL (≈ 0.306 µM); with Candida albicans [6], 16 µg/mL; with Candida albicans [7], 4 µg/mL. The MIC with Candida albicans [8] was determined as 0.06 µg/mL (≈ 0.141 µM). Moreover, the Ratio with Candida albicans [3] is 8.
Regarding `CCc1ccc([Se]C(Cn2ccnc2)c2ccc(F)cc2F)cc1` (stereo unspecified), the MIC in assay [Candida] zeylanoides is 0.5 µg/mL (≈ 1.28 µM); with Candida parapsilosis, 0.13 µg/mL (≈ 0.332 µM); in the assay with Candida albicans [1], 4 µg/mL; in the assay on Pichia kudriavzevii, 0.13 µg/mL (≈ 0.332 µM); in the assay on Candida albicans [2], 0.13 µg/mL (≈ 0.332 µM); in the assay with Aspergillus fumigatus, 8 µg/mL (≈ 20.4 µM). In addition, the MIC with Candida albicans [4] was found to be 1 µg/mL; with Cryptococcus neoformans it was 0.03 µg/mL (≈ 0.0767 µM); with Candida albicans [5], 8 µg/mL; in the assay on Nakaseomyces glabratus it was 0.5 µg/mL (≈ 1.28 µM); in the assay with Candida albicans [6] it was 2 µg/mL; with Candida albicans [7], 1 µg/mL. In addition, in the assay on Candida albicans [8], the MIC was 0.13 µg/mL (≈ 0.332 µM). Further, in the assay on Candida albicans [3], the Ratio is recorded as 8.
For the compound `COc1ccc([Se]C(Cn2ccnc2)c2ccc(F)cc2F)cc1` (stereo unspecified), the MIC in [Candida] zeylanoides was 0.25 µg/mL (≈ 0.636 µM); against Candida parapsilosis, 0.25 µg/mL (≈ 0.636 µM); with Candida albicans [1], 16 µg/mL; in the assay with Pichia kudriavzevii, 0.5 µg/mL (≈ 1.27 µM); in the assay on Candida albicans [2], 1 µg/mL (≈ 2.54 µM); with Aspergillus fumigatus, 8 µg/mL (≈ 20.3 µM). Further, the MIC is 16 µg/mL in the assay on Candida albicans [4]; 0.5 µg/mL (≈ 1.27 µM) against Cryptococcus neoformans; 8 µg/mL with Candida albicans [5]; 0.5 µg/mL (≈ 1.27 µM) in the assay with Nakaseomyces glabratus; 2 µg/mL with Candida albicans [6]; 2 µg/mL with Candida albicans [7]. In addition, the minimum inhibitory concentration (MIC) against Candida albicans [8] was 0.03 µg/mL (≈ 0.0763 µM). Also, the Ratio in the assay on Candida albicans [3] amounted to 8.
On to `CCc1ccccc1[Se]C(Cn1ccnc1)c1ccc(Cl)cc1Cl` (stereo unspecified), for which the MIC amounted to 0.5 µg/mL (≈ 1.18 µM) in [Candida] zeylanoides; 0.13 µg/mL (≈ 0.306 µM) in the assay with Candida parapsilosis; 4 µg/mL in the assay with Candida albicans [1]; 0.5 µg/mL (≈ 1.18 µM) against Pichia kudriavzevii; 0.25 µg/mL (≈ 0.589 µM) in the assay on Candida albicans [2]; 8 µg/mL (≈ 18.9 µM) against Aspergillus fumigatus. Besides, the MIC was determined as 16 µg/mL in the assay with Candida albicans [4]; 0.5 µg/mL (≈ 1.18 µM) in the assay on Cryptococcus neoformans; 1 µg/mL in the assay on Candida albicans [5]; 0.13 µg/mL (≈ 0.306 µM) in the assay with Nakaseomyces glabratus; 4 µg/mL in the assay with Candida albicans [6]; 2 µg/mL in the assay with Candida albicans [7]. This compound came in with an MIC with Candida albicans [8] of 0.03 µg/mL (≈ 0.0707 µM). Moreover, the Ratio in the assay with Candida albicans [3] is reported as 8.
Take `COc1ccc([Se]C(Cn2ccnc2)c2ccc(Cl)cc2Cl)cc1` (stereo unspecified): the MIC in [Candida] zeylanoides is 0.5 µg/mL (≈ 1.17 µM); in the assay on Candida parapsilosis, 0.25 µg/mL (≈ 0.587 µM); with Candida albicans [1], 2 µg/mL; with Pichia kudriavzevii it was 0.02 µg/mL (≈ 0.0469 µM); with Candida albicans [2], 0.13 µg/mL (≈ 0.305 µM); against Aspergillus fumigatus, 16 µg/mL (≈ 37.5 µM). Besides, the minimum inhibitory concentration (MIC) in the assay on Candida albicans [4] was determined as 2 µg/mL; against Cryptococcus neoformans, 0.25 µg/mL (≈ 0.587 µM); in the assay with Candida albicans [5], 8 µg/mL; against Nakaseomyces glabratus it was 0.25 µg/mL (≈ 0.587 µM); in the assay with Candida albicans [6], 8 µg/mL; in the assay with Candida albicans [7], 8 µg/mL. In addition, in the assay on Candida albicans [8], the MIC turned out to be 0.03 µg/mL (≈ 0.0704 µM). Moreover, in the assay with Candida albicans [3], the Ratio amounted to 8.
Take `COc1cccc([Se]C(Cn2ccnc2)c2ccc(F)cc2F)c1` (stereo unspecified): the MIC in assay [Candida] zeylanoides stood at 1 µg/mL (≈ 2.54 µM); with Candida parapsilosis, 0.25 µg/mL (≈ 0.636 µM); with Candida albicans [1], 4 µg/mL; in the assay with Pichia kudriavzevii, 0.13 µg/mL (≈ 0.331 µM); against Candida albicans [2] it was 0.5 µg/mL (≈ 1.27 µM); in the assay on Aspergillus fumigatus, 4 µg/mL (≈ 10.2 µM). Further, the MIC in the assay on Candida albicans [4] amounted to 1 µg/mL; in the assay with Cryptococcus neoformans, 0.5 µg/mL (≈ 1.27 µM); in the assay with Candida albicans [5], 8 µg/mL; against Nakaseomyces glabratus it was 0.5 µg/mL (≈ 1.27 µM); with Candida albicans [6], 4 µg/mL; with Candida albicans [7], 2 µg/mL. The compound further yielded an MIC against Candida albicans [8] of 0.13 µg/mL (≈ 0.331 µM). In addition, the Ratio in the assay on Candida albicans [3] stood at 8.
Regarding `COc1ccccc1[Se]C(Cn1ccnc1)c1ccc(F)cc1F` (stereo unspecified), the MIC is 0.13 µg/mL (≈ 0.331 µM) in assay [Candida] zeylanoides; 0.13 µg/mL (≈ 0.331 µM) against Candida parapsilosis; 8 µg/mL in the assay with Candida albicans [1]; 0.5 µg/mL (≈ 1.27 µM) against Pichia kudriavzevii; 1 µg/mL (≈ 2.54 µM) in the assay with Candida albicans [2]; 8 µg/mL (≈ 20.3 µM) against Aspergillus fumigatus. The MIC in the assay with Candida albicans [4] is 16 µg/mL; in the assay with Cryptococcus neoformans, 1 µg/mL (≈ 2.54 µM); in the assay with Candida albicans [5], 8 µg/mL; against Nakaseomyces glabratus, 0.25 µg/mL (≈ 0.636 µM); in the assay with Candida albicans [6], 4 µg/mL; with Candida albicans [7], 8 µg/mL. In the assay on Candida albicans [8], this compound yielded an MIC of 0.02 µg/mL (≈ 0.0509 µM). Also, the Ratio in the assay on Candida albicans [3] came out at 8.
In the case of `Cc1ccccc1[Se]C(Cn1ccnc1)c1ccc(Cl)cc1Cl` (stereo unspecified), the MIC in assay [Candida] zeylanoides amounted to 0.5 µg/mL (≈ 1.22 µM); against Candida parapsilosis, 0.5 µg/mL (≈ 1.22 µM); with Candida albicans [1], 2 µg/mL; against Pichia kudriavzevii, 0.13 µg/mL (≈ 0.317 µM); against Candida albicans [2], 0.13 µg/mL (≈ 0.317 µM); in the assay on Aspergillus fumigatus it was 16 µg/mL (≈ 39 µM). The MIC in the assay on Candida albicans [4] amounted to 0.5 µg/mL; against Cryptococcus neoformans, 0.5 µg/mL (≈ 1.22 µM); in the assay with Candida albicans [5], 0.5 µg/mL; with Nakaseomyces glabratus, 0.25 µg/mL (≈ 0.609 µM); in the assay with Candida albicans [6] it was 0.5 µg/mL; with Candida albicans [7], 4 µg/mL. This compound also returned an MIC against Candida albicans [8] of 0.03 µg/mL (≈ 0.0731 µM). The Ratio in the assay on Candida albicans [3] was determined as 8.
